The results in this text go back to patent US6835382B2, “Ii peptide therapeutics to enhance antigen presentation” (University of Massachusetts, priority 1996, dated 2004).

The experiment deals with murine E^d MHC class II allele. The experiment can be described thus: simultaneous assay, E^d allele (A20 APC, G28.C9 T hybridoma, HEL106-116; HT-2 [3H]TdR readout). As to conditions: simultaneous assay, Table 14, versus AE114 / AE301; E^d and E^k. Type of experiment: cell-based. The protocol:
Examples 1-4 (Tables 1-18) will be briefly considered in order to establish the concept of tolerance discussed above. These examples describe experimental results observed in the so-called “simultaneous” assay. In the simultaneous assay four principle components are cultured together for a 24 hour period. […] The degree of stimulation of that second, indicator cell by the interleukins which had been released from the activated T cell hybridoma in the primary culture is measured by quantitating tritiated thymidine deoxyribose {[^3H]TdR} uptake into the DNA of the HT-2 indicator cells of that second culture.
In the “simultaneous assay” the four components of the assay are cultured together for a 24 h period. […] The degree of stimulation of that second, indicator cell by the interleukins which had been released from the activated T cell hybridoma in the primary culture is measured by quantitating tritiated thymidine deoxyribose {[^3H]TdR} uptake into the DNA of the HT-2 indicator cells of that second culture. […]

Regarding Ac-LR (mL) KLPK-NH2 [AE302], the “reduction in activity on substitution of 3-methionine by N-methyl leucine” value is listed as 50-70%.
